Measurements as given in ChEMBL document CHEMBL4804281, “STK4 inhibitors for treatment of hematologic malignancies” (2020).

Tests used:
MAP4K2 (Homo sapiens) = experiment: Inhibition of GCK in human NCI-H929 cells at 10 uM by mass spectroscopic analysis relative to control
[1] = target: Serine/threonine-protein kinase WNK3 (Homo sapiens) (UniProt Q9BYP7); experiment: Inhibition of WNK3 in human NCI-H929 cells at 10 uM by mass spectroscopic analysis relative to control; assay type: cell-based
[2] = target: T1, Kinase suppressor of Ras 1 (Homo sapiens) (UniProt Q8IVT5); experiment: Inhibition of KSR1 in human NCI-H929 cells at 10 uM by mass spectroscopic analysis relative to control; assay type: cell-based
T1 sequence (whole entry): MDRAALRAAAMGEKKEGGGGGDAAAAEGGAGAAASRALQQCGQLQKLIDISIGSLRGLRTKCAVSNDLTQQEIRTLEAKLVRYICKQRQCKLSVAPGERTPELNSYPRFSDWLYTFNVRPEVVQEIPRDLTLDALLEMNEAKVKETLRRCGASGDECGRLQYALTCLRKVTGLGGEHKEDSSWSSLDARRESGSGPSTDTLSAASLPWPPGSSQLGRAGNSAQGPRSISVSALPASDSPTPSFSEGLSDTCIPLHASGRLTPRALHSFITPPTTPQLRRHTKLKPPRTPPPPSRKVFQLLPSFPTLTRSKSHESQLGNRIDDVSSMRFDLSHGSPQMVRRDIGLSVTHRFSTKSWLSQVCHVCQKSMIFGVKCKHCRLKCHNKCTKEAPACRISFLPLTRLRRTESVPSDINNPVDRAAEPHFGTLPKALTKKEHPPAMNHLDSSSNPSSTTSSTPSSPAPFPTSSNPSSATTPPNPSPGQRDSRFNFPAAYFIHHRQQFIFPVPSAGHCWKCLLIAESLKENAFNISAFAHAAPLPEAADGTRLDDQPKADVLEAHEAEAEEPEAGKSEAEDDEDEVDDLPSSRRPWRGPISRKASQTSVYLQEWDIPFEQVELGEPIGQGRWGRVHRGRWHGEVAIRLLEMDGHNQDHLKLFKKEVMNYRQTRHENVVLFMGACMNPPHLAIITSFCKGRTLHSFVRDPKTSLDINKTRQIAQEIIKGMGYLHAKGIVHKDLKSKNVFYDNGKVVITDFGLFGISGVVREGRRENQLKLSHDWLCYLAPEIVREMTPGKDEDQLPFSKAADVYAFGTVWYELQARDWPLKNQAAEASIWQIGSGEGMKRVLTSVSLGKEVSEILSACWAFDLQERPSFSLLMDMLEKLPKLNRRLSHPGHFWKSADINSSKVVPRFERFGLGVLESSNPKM

[3] = target: Mitogen-activated protein kinase kinase kinase kinase 4 (Homo sapiens) (UniProt O95819); experiment: Inhibition of HGK in human NCI-H929 cells at 10 uM by mass spectroscopic analysis relative to control; assay type: cell-based
[4] = target: Calcium/calmodulin-dependent protein kinase type II subunit alpha (Homo sapiens) (UniProt Q9UQM7); experiment: Inhibition of CAMK2A in human NCI-H929 cells at 10 uM by mass spectroscopic analysis relative to control; assay type: cell-based
[5] = target: Tyrosine-protein kinase Yes (Homo sapiens) (UniProt P07947); experiment: Inhibition of YES in human NCI-H929 cells at 10 uM by mass spectroscopic analysis relative to control; assay type: cell-based
[6] = target: Proto-oncogene tyrosine-protein kinase Src (Homo sapiens) (UniProt P12931); experiment: Inhibition of SRC in human NCI-H929 cells at 10 uM by mass spectroscopic analysis relative to control; assay type: cell-based
Proto-oncogene tyrosine-protein kinase Src (Homo sapiens), sequence (P12931 2-536 limits assumed): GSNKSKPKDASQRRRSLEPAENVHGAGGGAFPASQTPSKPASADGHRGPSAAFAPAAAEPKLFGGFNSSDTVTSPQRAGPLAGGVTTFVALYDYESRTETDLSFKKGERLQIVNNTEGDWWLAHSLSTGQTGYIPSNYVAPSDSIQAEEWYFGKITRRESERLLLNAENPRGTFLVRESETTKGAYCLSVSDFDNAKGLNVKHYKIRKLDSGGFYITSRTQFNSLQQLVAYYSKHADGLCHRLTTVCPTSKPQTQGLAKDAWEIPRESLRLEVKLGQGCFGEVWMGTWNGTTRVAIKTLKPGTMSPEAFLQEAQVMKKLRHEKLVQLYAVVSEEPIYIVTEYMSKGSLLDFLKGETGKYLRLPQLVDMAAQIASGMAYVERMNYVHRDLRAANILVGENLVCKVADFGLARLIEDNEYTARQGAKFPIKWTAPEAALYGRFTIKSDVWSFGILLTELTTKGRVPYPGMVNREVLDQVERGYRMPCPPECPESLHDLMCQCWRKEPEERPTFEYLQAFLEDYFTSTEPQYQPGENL

[7] = target: Serine/threonine-protein kinase WNK1 (Homo sapiens) (UniProt Q9H4A3); experiment: Inhibition of WNK1 in human NCI-H929 cells at 10 uM by mass spectroscopic analysis relative to control; assay type: cell-based
Serine/threonine-protein kinase WNK1 (Homo sapiens), sequence (Q9H4A3 whole entry, looked up): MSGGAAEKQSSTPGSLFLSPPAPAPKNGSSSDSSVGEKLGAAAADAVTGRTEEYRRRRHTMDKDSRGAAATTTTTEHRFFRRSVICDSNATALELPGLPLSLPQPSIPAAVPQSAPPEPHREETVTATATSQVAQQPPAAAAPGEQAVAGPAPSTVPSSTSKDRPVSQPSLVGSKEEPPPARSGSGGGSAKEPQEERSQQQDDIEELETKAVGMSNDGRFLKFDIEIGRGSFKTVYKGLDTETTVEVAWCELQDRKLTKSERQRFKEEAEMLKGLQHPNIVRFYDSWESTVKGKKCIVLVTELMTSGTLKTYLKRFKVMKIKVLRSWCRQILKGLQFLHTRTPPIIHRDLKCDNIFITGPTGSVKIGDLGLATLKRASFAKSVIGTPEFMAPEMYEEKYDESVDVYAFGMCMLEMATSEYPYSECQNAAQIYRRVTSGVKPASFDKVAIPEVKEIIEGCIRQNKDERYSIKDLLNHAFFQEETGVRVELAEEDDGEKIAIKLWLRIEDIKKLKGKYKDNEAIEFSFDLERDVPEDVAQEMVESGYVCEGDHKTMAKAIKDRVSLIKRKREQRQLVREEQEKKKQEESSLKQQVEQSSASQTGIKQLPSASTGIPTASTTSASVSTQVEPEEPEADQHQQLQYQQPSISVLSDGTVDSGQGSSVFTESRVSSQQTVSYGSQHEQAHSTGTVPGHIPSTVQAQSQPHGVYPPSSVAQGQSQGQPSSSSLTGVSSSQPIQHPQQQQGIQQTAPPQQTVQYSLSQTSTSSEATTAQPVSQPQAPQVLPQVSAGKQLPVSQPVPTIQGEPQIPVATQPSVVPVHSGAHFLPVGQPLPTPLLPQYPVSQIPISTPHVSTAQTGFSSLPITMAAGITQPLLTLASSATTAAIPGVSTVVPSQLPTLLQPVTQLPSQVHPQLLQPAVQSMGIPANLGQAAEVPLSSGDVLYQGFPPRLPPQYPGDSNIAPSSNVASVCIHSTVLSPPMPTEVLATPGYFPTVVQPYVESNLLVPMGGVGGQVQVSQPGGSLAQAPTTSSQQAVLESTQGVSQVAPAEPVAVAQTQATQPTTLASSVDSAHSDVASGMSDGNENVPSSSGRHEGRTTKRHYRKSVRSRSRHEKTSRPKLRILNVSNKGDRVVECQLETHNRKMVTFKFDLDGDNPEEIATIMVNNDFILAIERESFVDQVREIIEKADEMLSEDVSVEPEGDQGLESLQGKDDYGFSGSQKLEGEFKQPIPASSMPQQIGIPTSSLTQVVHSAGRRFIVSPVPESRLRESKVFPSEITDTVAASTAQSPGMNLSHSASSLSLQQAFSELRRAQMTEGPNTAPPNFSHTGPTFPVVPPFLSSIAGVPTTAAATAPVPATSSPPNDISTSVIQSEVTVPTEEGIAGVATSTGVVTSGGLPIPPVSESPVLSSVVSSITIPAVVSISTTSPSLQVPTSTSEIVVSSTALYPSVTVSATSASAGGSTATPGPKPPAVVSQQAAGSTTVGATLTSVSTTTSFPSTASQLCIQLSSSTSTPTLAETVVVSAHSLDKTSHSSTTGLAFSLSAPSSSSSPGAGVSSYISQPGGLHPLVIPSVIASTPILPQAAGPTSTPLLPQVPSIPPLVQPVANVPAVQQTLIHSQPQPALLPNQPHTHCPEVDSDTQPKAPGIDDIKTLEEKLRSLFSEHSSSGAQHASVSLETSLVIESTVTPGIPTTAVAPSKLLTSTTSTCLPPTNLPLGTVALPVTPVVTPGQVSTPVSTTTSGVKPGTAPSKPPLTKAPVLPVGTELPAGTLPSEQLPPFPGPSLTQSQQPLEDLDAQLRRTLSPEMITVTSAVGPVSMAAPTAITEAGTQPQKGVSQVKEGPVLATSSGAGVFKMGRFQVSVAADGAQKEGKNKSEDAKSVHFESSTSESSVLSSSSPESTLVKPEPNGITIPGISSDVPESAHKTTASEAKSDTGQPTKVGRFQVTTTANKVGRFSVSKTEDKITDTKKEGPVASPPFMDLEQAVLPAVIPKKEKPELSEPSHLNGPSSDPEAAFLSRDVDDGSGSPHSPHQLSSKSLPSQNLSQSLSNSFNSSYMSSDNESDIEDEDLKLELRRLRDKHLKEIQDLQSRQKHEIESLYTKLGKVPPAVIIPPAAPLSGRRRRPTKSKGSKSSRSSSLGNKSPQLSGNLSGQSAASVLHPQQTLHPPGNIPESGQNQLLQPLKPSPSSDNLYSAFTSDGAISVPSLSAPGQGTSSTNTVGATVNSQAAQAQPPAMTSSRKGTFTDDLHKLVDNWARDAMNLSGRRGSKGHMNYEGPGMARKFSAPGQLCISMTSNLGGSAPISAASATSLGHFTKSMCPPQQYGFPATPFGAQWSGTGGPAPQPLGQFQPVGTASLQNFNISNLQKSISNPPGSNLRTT

[8] = target: Serine/threonine-protein kinase 24 (Homo sapiens) (UniProt Q9Y6E0); experiment: Inhibition of STK24 (unknown origin) using fluorescein-labelled Ser/Thr-07 peptide as substrate incubated for 1 hr in presence of ATP at Km concentration by Z-LYTE assay
Serine/threonine-protein kinase 24 (Homo sapiens), sequence (Q9Y6E0 whole entry, looked up): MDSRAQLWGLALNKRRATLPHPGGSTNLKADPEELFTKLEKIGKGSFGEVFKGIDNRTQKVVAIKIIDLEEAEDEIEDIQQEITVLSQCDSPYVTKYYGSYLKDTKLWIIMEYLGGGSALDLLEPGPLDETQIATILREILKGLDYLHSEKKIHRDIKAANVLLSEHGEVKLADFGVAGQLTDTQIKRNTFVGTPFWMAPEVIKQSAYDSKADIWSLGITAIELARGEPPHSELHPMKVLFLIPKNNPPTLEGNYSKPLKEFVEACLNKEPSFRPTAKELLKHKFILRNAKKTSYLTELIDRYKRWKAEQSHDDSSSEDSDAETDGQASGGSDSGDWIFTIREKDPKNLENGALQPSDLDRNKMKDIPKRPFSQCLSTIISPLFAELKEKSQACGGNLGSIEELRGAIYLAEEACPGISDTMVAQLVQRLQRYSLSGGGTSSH

[9] = target: T2, Mitogen-activated protein kinase 13 (Homo sapiens) (UniProt O15264); experiment: Inhibition of P38delta in human NCI-H929 cells at 10 uM by mass spectroscopic analysis relative to control; assay type: cell-based
T2 sequence (whole entry): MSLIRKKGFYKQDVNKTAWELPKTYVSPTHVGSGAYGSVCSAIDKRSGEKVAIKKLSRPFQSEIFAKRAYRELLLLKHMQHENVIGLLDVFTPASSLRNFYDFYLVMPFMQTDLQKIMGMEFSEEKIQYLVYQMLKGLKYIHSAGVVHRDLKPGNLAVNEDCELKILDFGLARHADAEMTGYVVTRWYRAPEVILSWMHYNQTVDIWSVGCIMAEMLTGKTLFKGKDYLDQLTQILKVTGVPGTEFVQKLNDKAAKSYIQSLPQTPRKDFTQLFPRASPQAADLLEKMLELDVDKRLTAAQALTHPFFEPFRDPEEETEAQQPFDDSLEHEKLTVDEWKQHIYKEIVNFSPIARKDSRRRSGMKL

[10] = target: PRKCI, protein kinase C iota (Homo sapiens) (UniProt P41743); experiment: Inhibition of PKCi in human NCI-H929 cells at 10 uM by mass spectroscopic analysis relative to control
[11] = target: Cyclin-dependent kinase 17 (Homo sapiens) (UniProt Q00537); experiment: Inhibition of PCTAIRE2 in human NCI-H929 cells at 10 uM by mass spectroscopic analysis relative to control; assay type: cell-based
Cyclin-dependent kinase 17 (Homo sapiens), sequence (Q00537 whole entry, looked up): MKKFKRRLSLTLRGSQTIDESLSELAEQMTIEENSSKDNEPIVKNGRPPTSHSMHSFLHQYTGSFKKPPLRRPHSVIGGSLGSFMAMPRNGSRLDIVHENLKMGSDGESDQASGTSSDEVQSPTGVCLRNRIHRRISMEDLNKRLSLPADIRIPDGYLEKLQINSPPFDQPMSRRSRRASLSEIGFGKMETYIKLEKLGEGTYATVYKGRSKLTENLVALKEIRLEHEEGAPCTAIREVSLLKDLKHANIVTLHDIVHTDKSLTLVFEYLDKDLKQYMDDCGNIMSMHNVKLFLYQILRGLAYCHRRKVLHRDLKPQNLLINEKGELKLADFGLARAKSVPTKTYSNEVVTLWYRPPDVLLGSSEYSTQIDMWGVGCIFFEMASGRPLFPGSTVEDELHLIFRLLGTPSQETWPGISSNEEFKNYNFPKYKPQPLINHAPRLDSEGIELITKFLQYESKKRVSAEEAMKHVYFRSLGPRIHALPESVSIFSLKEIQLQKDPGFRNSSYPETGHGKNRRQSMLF

[12] = target: Mitogen-activated protein kinase 10 (Homo sapiens) (UniProt P53779); experiment: Inhibition of JNK3 in human NCI-H929 cells at 10 uM by mass spectroscopic analysis relative to control; assay type: cell-based
[13] = target: Tyrosine-protein kinase ABL1 (Homo sapiens) (UniProt P00519); experiment: Inhibition of ABL in human NCI-H929 cells at 10 uM by mass spectroscopic analysis relative to control; assay type: cell-based
Tyrosine-protein kinase ABL1 (Homo sapiens), sequence (P00519 whole entry): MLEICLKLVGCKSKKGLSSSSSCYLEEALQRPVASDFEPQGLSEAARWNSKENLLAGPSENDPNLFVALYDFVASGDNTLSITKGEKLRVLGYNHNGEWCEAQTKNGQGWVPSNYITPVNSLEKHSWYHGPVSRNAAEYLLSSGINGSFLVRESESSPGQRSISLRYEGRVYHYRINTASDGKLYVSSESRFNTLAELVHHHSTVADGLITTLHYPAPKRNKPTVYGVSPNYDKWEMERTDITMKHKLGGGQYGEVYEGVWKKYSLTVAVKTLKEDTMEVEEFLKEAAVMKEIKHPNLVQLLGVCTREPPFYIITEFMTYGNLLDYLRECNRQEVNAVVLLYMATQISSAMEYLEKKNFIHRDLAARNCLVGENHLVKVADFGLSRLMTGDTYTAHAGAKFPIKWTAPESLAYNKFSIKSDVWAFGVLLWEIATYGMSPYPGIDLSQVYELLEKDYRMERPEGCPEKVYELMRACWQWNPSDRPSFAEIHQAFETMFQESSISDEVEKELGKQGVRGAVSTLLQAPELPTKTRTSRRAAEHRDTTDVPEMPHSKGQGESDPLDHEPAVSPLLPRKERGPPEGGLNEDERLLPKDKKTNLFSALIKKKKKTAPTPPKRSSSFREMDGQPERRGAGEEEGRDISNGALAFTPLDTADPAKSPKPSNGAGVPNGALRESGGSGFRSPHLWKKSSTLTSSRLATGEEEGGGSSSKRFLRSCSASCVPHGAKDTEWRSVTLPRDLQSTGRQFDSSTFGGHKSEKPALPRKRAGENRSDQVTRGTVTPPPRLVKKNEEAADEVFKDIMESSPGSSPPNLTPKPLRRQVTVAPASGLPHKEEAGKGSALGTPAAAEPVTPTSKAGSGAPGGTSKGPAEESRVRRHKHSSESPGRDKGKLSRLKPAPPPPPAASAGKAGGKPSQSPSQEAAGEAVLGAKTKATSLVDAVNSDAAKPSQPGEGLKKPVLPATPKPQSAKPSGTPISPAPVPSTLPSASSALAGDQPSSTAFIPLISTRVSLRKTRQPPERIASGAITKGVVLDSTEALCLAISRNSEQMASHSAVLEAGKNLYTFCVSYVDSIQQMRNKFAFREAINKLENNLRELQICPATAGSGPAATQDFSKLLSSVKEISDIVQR

[14] = target: T3, Mitogen-activated protein kinase 12 (Homo sapiens) (UniProt P53778); experiment: Inhibition of P38gamma in human NCI-H929 cells at 10 uM by mass spectroscopic analysis relative to control; assay type: cell-based
T3 sequence (whole entry): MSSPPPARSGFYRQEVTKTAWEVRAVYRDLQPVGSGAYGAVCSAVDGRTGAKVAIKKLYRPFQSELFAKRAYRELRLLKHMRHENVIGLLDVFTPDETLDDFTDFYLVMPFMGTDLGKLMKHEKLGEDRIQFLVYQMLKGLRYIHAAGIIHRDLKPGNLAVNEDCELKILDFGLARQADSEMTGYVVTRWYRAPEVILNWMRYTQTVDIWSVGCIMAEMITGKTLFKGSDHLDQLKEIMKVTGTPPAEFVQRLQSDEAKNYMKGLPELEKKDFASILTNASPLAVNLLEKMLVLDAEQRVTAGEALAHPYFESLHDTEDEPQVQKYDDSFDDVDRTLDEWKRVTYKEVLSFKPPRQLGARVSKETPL

[15] = target: Misshapen-like kinase 1 (Homo sapiens) (UniProt Q8N4C8); experiment: Inhibition of MINK in human NCI-H929 cells at 10 uM by mass spectroscopic analysis relative to control; assay type: cell-based

| Compound | inhibition (MAP4K2 (Homo sapiens)) [%] | inhibition [1] [%] | inhibition [2] [%] | inhibition [3] [%] | inhibition [4] [%] | inhibition [5] [%] | inhibition [6] [%] | inhibition [7] [%] | IC50 [8] [nM] | inhibition [9] [%] | inhibition [10] [%] | inhibition [11] [%] | inhibition [12] [%] | inhibition [13] [%] | inhibition [14] [%] | inhibition [15] [%] |
| --- | --- | --- | --- | --- | --- | --- | --- | --- | --- | --- | --- | --- | --- | --- | --- | --- |
| COc1cc(NS(=O)(=O)C2CC2)ccc1-c1cnc(N)c(-c2ccc3c(c2)CCNC3=O)c1 | 0 | 0 | 0 | > 90 | 0 | > 90 | 0 | 0 | 200 | 0 | 0 | 0 | 75 | 0 | 0 | 50 |
| Nc1ncc(-c2ccc(NS(=O)(=O)C3CC3)cc2OC2CCCCC2)cc1-c1ccc2c(c1)CCNC2=O | > 90 | 0 | 0 | > 90 | 0 | 0 | 0 | 0 | > 900 | 0 | 0 | 0 | 0 | 0 | 0 | 50 |
| Nc1ncc(-c2cccc3ncsc23)cc1-c1ccc2c(c1)CCNC2=O | – | 0 | 0 | > 90 | 0 | 0 | 0 | 0 | > 900 | 0 | 0 | – | 0 | 50 | 0 | > 90 |

More lines, now with the values ahead:

| inhibition (MAP4K2 (Homo sapiens)) [%] | inhibition [1] [%] | inhibition [2] [%] | inhibition [3] [%] | inhibition [4] [%] | inhibition [5] [%] | inhibition [6] [%] | inhibition [7] [%] | IC50 [8] [nM] | inhibition [9] [%] | inhibition [10] [%] | inhibition [11] [%] | inhibition [12] [%] | inhibition [13] [%] | inhibition [14] [%] | inhibition [15] [%] | Compound |
| --- | --- | --- | --- | --- | --- | --- | --- | --- | --- | --- | --- | --- | --- | --- | --- | --- |
| > 90 | 0 | 0 | > 90 | 0 | 0 | 0 | 0 | 40 | 0 | 0 | 0 | 0 | 0 | 0 | – | Nc1ncc(-c2ccc(NS(=O)(=O)C3CC3)cc2F)cc1-c1ccc2c(c1)CCNC2=O |
| – | > 100 | 0 | > 90 | 0 | 0 | 0 | > 100 | > 900 | 0 | 0 | – | 0 | – | 0 | > 90 | Nc1ncc(-c2cccc([N+](=O)[O-])c2F)cc1-c1ccc2c(c1)CCNC2=O |
| – | 0 | 0 | > 90 | 0 | 0 | 0 | 0 | 40 | 0 | 0 | – | 0 | 0 | 0 | > 90 | CN(C1CC1)S(=O)(=O)c1ccc(-c2cnc(N)c(-c3ccc4c(c3)CCNC4=O)c2)c(F)c1 |
